From ChEMBL document CHEMBL2390842, “Development of indole/indazole-aminopyrimidines as inhibitors of c-Jun N-terminal kinase (JNK): optimization for JNK potency and physicochemical properties” (Bioorg Med Chem Lett, 2013)
Converted amounts (≈) assume the structure as drawn. Values belong to the molecule of their own block, whether it stands above or below them.

What was measured:
[1] = target: c-Jun N-terminal kinase, JNK (Homo sapiens, UniProt P45983+P53779+P45984); experiment: Inhibition of JNK-mediated c-Jun activation in TNFalpha-induced human SW1353 cells preincubated for 30 mins prior to TNFalpha treatment measured after 20 mins; assay type: cell-based
[2] = target: Mitogen-activated protein kinase 8 (Homo sapiens, UniProt P45983); experiment: Inhibition of human JNK1alpha1 using GST-tagged ATF2 as substrate preincubated for 10 mins prior to substrate addition measured after 30 mins by microplate scintillation counting analysis
Sequence of Mitogen-activated protein kinase 8 (P45983 whole entry): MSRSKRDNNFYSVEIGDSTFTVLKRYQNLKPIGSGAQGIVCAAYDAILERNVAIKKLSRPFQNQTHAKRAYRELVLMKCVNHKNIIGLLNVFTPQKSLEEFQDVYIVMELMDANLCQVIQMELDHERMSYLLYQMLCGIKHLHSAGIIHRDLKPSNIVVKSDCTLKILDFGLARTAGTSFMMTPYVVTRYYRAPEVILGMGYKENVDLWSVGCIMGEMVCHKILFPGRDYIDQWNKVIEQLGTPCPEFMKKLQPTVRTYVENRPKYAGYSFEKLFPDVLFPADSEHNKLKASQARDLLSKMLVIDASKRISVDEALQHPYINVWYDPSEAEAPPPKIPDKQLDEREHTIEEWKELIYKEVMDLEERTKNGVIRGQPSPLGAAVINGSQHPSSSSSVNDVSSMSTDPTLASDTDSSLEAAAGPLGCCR

[3] = Solubility of the compound in phosphate buffer at pH 6.4; assay type: physicochemical
[4] = Permeability from apical to basolateral side in human Caco2 cells; assay type: ADME, cell-based; settings: Caco-2
[5] = system: Caco-2; experiment: Efflux ratio of permeability from […] side in human Caco2 cells; assay type: ADME, cell-based
[6] = Half life in dog at 2 mg/kg, po; assay type: ADME, organism-based, Canis lupus familiaris; design: dose 2 mg/kg, route oral; settings: in vivo
[7] = Oral bioavailability in dog at 2 mg/kg; assay type: ADME, organism-based, Canis lupus familiaris; settings: in vivo
[8] = Clearance in dog at 0.5 mg/kg, iv; assay type: ADME, organism-based, Canis lupus familiaris; design: dose 0.5 mg/kg, route intravenous; settings: in vivo
[9] = Oral bioavailability in rat at 2 mg/kg; assay type: ADME, organism-based; settings: in vivo
[10] = Half life in rat at 2 mg/kg, po; assay type: ADME, organism-based; design: dose 2 mg/kg, route oral; settings: in vivo
[11] = target: Mitogen-activated protein kinase 9 (Homo sapiens, UniProt P45984); experiment: Inhibition of human JNK2alpha2 using GST-tagged ATF2 as substrate preincubated for 10 mins prior to substrate addition measured after 30 mins by microplate scintillation counting analysis
Sequence of Mitogen-activated protein kinase 9 (P45984 whole entry): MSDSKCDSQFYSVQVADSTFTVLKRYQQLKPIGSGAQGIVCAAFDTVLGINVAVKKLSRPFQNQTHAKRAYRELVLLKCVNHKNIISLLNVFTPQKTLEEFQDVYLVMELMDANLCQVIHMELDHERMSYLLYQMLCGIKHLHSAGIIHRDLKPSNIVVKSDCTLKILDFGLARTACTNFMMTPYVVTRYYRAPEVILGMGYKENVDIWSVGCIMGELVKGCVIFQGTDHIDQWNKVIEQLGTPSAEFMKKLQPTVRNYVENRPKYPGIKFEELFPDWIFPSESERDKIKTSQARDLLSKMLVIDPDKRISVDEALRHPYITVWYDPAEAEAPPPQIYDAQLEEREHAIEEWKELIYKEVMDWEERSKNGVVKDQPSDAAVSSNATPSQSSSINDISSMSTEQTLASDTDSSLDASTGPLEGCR

[12] = Half life in dog at 0.5 mg/kg, iv; assay type: ADME, organism-based, Canis lupus familiaris; design: dose 0.5 mg/kg, route intravenous; settings: in vivo
[13] = Clearance in rat at 0.5 mg/kg, iv; assay type: ADME, organism-based; design: dose 0.5 mg/kg, route intravenous; settings: in vivo
[14] = Half life in rat at 0.5 mg/kg, iv; assay type: ADME, organism-based; design: dose 0.5 mg/kg, route intravenous; settings: in vivo

Compound: CS(=O)(=O)N[C@H]1CC[C@H](Nc2nccc(-n3ccc4c(N5CCC(S(C)(=O)=O)CC5)cccc43)n2)CC1
- IC50 [1]: 710 nM

Compound: CS(=O)(=O)N[C@H]1CC[C@H](Nc2nccc(-n3ccc4c(N5CCN(C(=O)CC#N)CC5)cccc43)n2)CC1
- IC50 [1]: 200 nM
- IC50 [2]: 5 nM

Compound: CS(=O)(=O)C1CCN(c2cccc3c2ccn3-c2ccnc(N[C@H]3CC[C@H](O)CC3)n2)CC1
- solubility [3]: 5.2 µg/mL (≈ 11.1 µM)
- half-life [6]: 3.4 h
- Papp A→B [4]: 10.5 ×10⁻⁶ cm/s
- bioavailability [7]: 15%
- clearance [8]: 10.6 mL/min/kg
- bioavailability [9]: 100%
- half-life [10]: 2 h
- IC50 [11]: 20 nM
- half-life [12]: 4.5 h
- clearance [13]: 47 mL/min/kg
- half-life [14]: 0.7 h

The remaining lines, values ahead:

- solubility [3]: 3.5 µg/mL (≈ 7.44 µM)
- IC50 [1]: 290 nM
- Papp A→B [4]: 3.8 ×10⁻⁶ cm/s
- Ratio [5]: 5
- IC50 [2]: 6 nM
Compound: CS(=O)(=O)C1CCN(c2cccc3c2cnn3-c2ccnc(N[C@H]3CC[C@H](O)CC3)n2)CC1

- IC50 [1]: 700 nM
- IC50 [2]: 7 nM
Compound: CC(=O)N[C@H]1CC[C@H](Nc2nccc(-n3ccc4c(N5CCC(S(C)(=O)=O)CC5)cccc43)n2)CC1

- Papp A→B [4]: 0.4 ×10⁻⁶ cm/s
Compound: CS(=O)(=O)C1CCN(c2cccc3c2ccn3-c2ccnc(N[C@H]3CC[C@H](C(=O)N4CCC(O)CC4)CC3)n2)CC1

- Papp A→B [4]: 0.1 ×10⁻⁶ cm/s
Compound: CS(=O)(=O)C1CCN(c2cccc3c2ccn3-c2ccnc(N[C@H]3CC[C@H](C(=O)N4CCn5cnnc5C4)CC3)n2)CC1
